Experimental data as given in patent US10294234B2, “HIV inhibitor compounds” (priority 2017, dated 2019).
pEC50: −log10 of the molar value. Like-named read-outs stand apart in the source and are kept apart here.

Test system: HIV-1 (IIIB) in MT-4 cells
Assay: MT-4 HIV assay
Format: cell-based
Settings: Human immunodeficiency virus 1, MT4, 120 h
In short: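 Antiviral activity was read by Cell Titer Glo after a 5-day, 37 °C culture of MT-4 cells pre-infected with a 1:250 dilution of HIV-1 (IIIB). Compounds were tested as threefold dilution series in complete RPMI. Controls were no drug, mock infection and 5 uM AZT.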

[1] = HIV-1 (IIIB), MT-4 cells, 5 days, Cell Titer Glo, read-out: EC50

Compound | pEC50 [1] | pEC50
COC(=O)N[C@H](C(=O)N[C@@H](Cc1ccc(C#Cc2ccc(N3CC4CCC(C3)N4CC(F)F)nc2)cc1)[C@@H](O)CN(Cc1c(F)cc(-c2ccccn2)cc1Cl)NC(=O)[C@@H](NC(=O)OC)C(C)(C)CF)C(C)(C)CF [Example 238, methyl ((5S,8S,9S,14S)-11-(2-chloro-6-fluoro-4-(pyridin-2-yl)benzyl)-8-(4-((6-(8-(2,2-difluoroethyl)-3,8-diazabicyclo[3.2.1]octan-3-yl)pyridin-3-yl)ethynyl)benzyl)-16-fluoro-5-(1-fluoro-2-methylpropan-2-yl)-9-hydroxy-15,15-dimethyl-3,6,13-trioxo-2-oxa-4,7,11,12-tetraazahexadecan-14-yl)carbamate] | 7.91 | –
COC(=O)N[C@H](C(=O)N[C@@H](Cc1ccc(C#Cc2ccc(N3CCN4CCOC[C@@H]4C3)nc2)cc1)[C@@H](O)CN(Cc1c(F)cc(-c2ccn(C(F)F)n2)cc1F)NC(=O)[C@@H](NC(=O)OC)C(C)(C)C(F)(F)F)C(C)(C)C(F)(F)F [Example 55, Methyl ((5S,8S,9S,14S)-11-(4-(1-(difluoromethyl)-1H-pyrazol-3-yl)-2,6-difluorobenzyl)-16,16,16-trifluoro-8-(4-((6-((S)-hexahydropyrazino[2,1-c][1,4]oxazin-8(1H)-yl)pyridin-3-yl)ethynyl)benzyl)-9-hydroxy-15,15-dimethyl-3,6,13-trioxo-5-(1,1,1-trifluoro-2-methylpropan-2-yl)-2-oxa-4,7,11,12-tetraazahexadecan-14-yl)carbamate] | 8.35 | –
COC(=O)N[C@H](C(=O)N[C@@H](Cc1ccc(C#Cc2ccc(N3C[C@H]4C[C@@H]3CN4C3COC3)nc2)cc1)[C@@H](O)CN(Cc1c(F)cc(-c2nnc(C3CC3)s2)cc1F)NC(=O)[C@@H](NC(=O)OC)C(C)(C)C(F)(F)F)C(C)(C)C(F)(F)F [Example 27, Methyl ((5S,8S,9S,14S)-11-(4-(5-cyclopropyl-1,3,4-thiadiazol-2-yl)-2,6-difluorobenzyl)-16,16,16-trifluoro-9-hydroxy-15,15-dimethyl-8-(4-((6-((1R,4R)-5-(oxetan-3-yl)-2,5-diazabicyclo[2.2.1]heptan-2-yl)pyridin-3-yl)ethynyl)benzyl)-3,6,13-trioxo-5-(1,1,1-trifluoro-2-methylpropan-2-yl)-2-oxa-4,7,11,12-tetraazahexadecan-14-yl)carbamate] | – | 8.46
CC1(C(=O)N[C@H](C(=O)N[C@@H](Cc2ccc(-c3cnn(C(F)F)c3)cc2)[C@@H](O)CN(Cc2c(F)cc(-c3cnn(C(F)F)c3)cc2F)NC(=O)[C@@H](NC(=O)C2(C)CC2)C(C)(C)C(F)(F)F)C(C)(C)C(F)(F)F)CC1 [Example 216, N—((S)-1-(2-(4-(1-(difluoromethyl)-1H-pyrazol-4-yl)-2,6-difluorobenzyl)-2-((2S,3S)-4-(4-(1-(difluoromethyl)-1H-pyrazol-4-yl)phenyl)-2-hydroxy-3-((S)-4,4,4-trifluoro-3,3-dimethyl-2-(1-methylcyclopropane-1-carboxamido)butanamido)butyl)hydrazinyl)-4,4,4-trifluoro-3,3-dimethyl-1-oxobutan-2-yl)-1-methylcyclopropane-1-carboxamide] | 6.94 | –
COC(=O)N[C@H](C(=O)N[C@@H](Cc1ccc(C#Cc2ccc(N3CC4CCC(C3)N4)nc2)cc1)[C@@H](O)CN(Cc1c(F)cc(-c2cnn(C(F)F)c2)cc1F)NC(=O)[C@@H](NC(=O)OC)C(C)(C)C(F)(F)F)C(C)(C)C(F)(F)F [Example 162, Methyl ((5S,8S,9S,14S)-8-(4-((6-(3,8-diazabicyclo[3.2.1]octan-3-yl)pyridin-3-yl)ethynyl)benzyl)-11-(4-(1-(difluoromethyl)-1H-pyrazol-4-yl)-2,6-difluorobenzyl)-16,16,16-trifluoro-9-hydroxy-15,15-dimethyl-3,6,13-trioxo-5-(1,1,1-trifluoro-2-methylpropan-2-yl)-2-oxa-4,7,11,12-tetraazahexadecan-14-yl)carbamate] | 7.91 | –
COC(=O)N[C@H](C(=O)NN(Cc1ccc(-c2cnn(C3CC3)c2)cc1)C[C@H](O)[C@H](Cc1ccc(C#Cc2ccc(N3CC4CCC(C3)N4C3COC3)nc2)cc1)NC(=O)[C@@H](NC(=O)OC)C(C)(C)C(F)(F)F)C(C)(C)C [Example 117, Methyl ((5S,8S,9S,14S)-11-(4-(1-cyclopropyl-1H-pyrazol-4-yl)benzyl)-9-hydroxy-15,15-dimethyl-8-(4-((6-(8-(oxetan-3-yl)-3,8-diazabicyclo [3.2.1]octan-3-yl)pyridin-3-yl)ethynyl)benzyl)-3,6,13-trioxo-5-(1,1,1-trifluoro-2-methylpropan-2-yl)-2-oxa-4,7,11,12-tetraazahexadecan-14-yl)carbamate] | 8.38 | –
COC(=O)N[C@H](C(=O)N[C@@H](Cc1ccc(C#Cc2ccc(N3CC4CCC(C3)N4CC3CNC3)nc2)cc1)[C@@H](O)CN(Cc1c(F)cc(-c2cnn(C(F)F)c2)cc1F)NC(=O)[C@@H](NC(=O)OC)C(C)(C)C(F)(F)F)C(C)(C)C(F)(F)F [Example 109, Methyl ((5S,8S,9S,14S)-8-(4-((6-(8-(azetidin-3-ylmethyl)-3,8-diazabicyclo[3.2.1]octan-3-yl)pyridin-3-yl)ethynyl)benzyl)-11-(4-(1-(difluoromethyl)-1H-pyrazol-4-yl)-2,6-difluorobenzyl)-16,16,16-trifluoro-9-hydroxy-15,15-dimethyl-3,6,13-trioxo-5-(1,1,1-trifluoro-2-methylpropan-2-yl)-2-oxa-4,7,11,12-tetraazahexadecan-14-yl)carbamate] | 7.22 | –
COC(=O)N[C@H](C(=O)N[C@@H](Cc1ccc(C#Cc2ccc(N3CC4CCC(C3)N4C3COC3)nc2C)cc1)[C@@H](O)CN(Cc1c(F)cc(-c2ccn(C(F)F)n2)cc1F)NC(=O)[C@@H](NC(=O)OC)C(C)(C)C(F)(F)F)C(C)(C)C(F)(F)F [Example 152, Methyl ((5S,8S,9S,14S)-11-(4-(1-(difluoromethyl)-1H-pyrazol-3-yl)-2,6-difluorobenzyl)-16,16,16-trifluoro-9-hydroxy-15,15-dimethyl-8-(4-((2-methyl-6-(8-(oxetan-3-yl)-3,8-diazabicyclo[3.2.1]octan-3-yl)pyridin-3-yl)ethynyl)benzyl)-3,6,13-trioxo-5-(1,1,1-trifluoro-2-methylpropan-2-yl)-2-oxa-4,7,11,12-tetraazahexadecan-14-yl)carbamate] | 8.21 | –
COC(=O)N[C@H](C(=O)N[C@@H](Cc1ccc(-c2ccc(N3C[C@H]4C[C@@H]3CN4C3COC3)nc2)cc1)[C@@H](O)CN(Cc1c(F)cc(-c2ccn(C(F)F)n2)cc1F)NC(=O)[C@@H](NC(=O)OC)C(C)(C)C(F)(F)F)C(C)(C)C(F)(F)F [Example 196, Methyl ((5S,8S,9S,14S)-11-(4-(1-(difluoromethyl)-1H-pyrazol-3-yl)-2,6-difluorobenzyl)-16,16,16-trifluoro-9-hydroxy-15,15-dimethyl-8-(4-(6-((1R,4R)-5-(oxetan-3-yl)-2,5-diazabicyclo[2.2.1]heptan-2-yl)pyridin-3-yl)benzyl)-3,6,13-trioxo-5-(1,1,1-trifluoro-2-methylpropan-2-yl)-2-oxa-4,7,11,12-tetraazahexadecan-14-yl)carbamate] | – | 7.98
COC(=O)N[C@H](C(=O)N[C@@H](Cc1ccc(C#Cc2ccc(N3CC4CCC(C3)N4C3COC3)nc2)cc1)[C@@H](O)CN(Cc1c(Cl)cc(-c2ccccn2)cc1Cl)NC(=O)[C@@H](NC(=O)OC)C(C)(C)C(F)(F)F)C(C)(C)C(F)(F)F [Example 149, Methyl ((5S,8S,9S,14S)-11-(2,6-dichloro-4-(pyridin-2-yl)benzyl)-16,16,16-trifluoro-9-hydroxy-15,15-dimethyl-8-(4-((6-(8-(oxetan-3-yl)-3,8-diazabicyclo[3.2.1]octan-3-yl)pyridin-3-yl)ethynyl)benzyl)-3,6,13-trioxo-5-(1,1,1-trifluoro-2-methylpropan-2-yl)-2-oxa-4,7,11,12-tetraazahexadecan-14-yl)carbamate] | 8.08 | –
COC(=O)N[C@H](C(=O)N[C@@H](Cc1ccc(C#Cc2cnc(N3CC4CCC(C3)N4)nc2)cc1)[C@@H](O)CN(Cc1c(F)cc(-c2ccn(C(F)F)n2)cc1F)NC(=O)[C@@H](NC(=O)OC)C(C)(C)C(F)(F)F)C(C)(C)C(F)(F)F [Example 172, Methyl ((5S,8S,9S,14S)-8-(4-((2-(3,8-diazabicyclo[3.2.1]octan-3-yl)pyrimidin-5-yl)ethynyl)benzyl)-11-(4-(1-(difluoromethyl)-1H-pyrazol-3-yl)-2,6-difluorobenzyl)-16,16,16-trifluoro-9-hydroxy-15,15-dimethyl-3,6,13-trioxo-5-(1,1,1-trifluoro-2-methylpropan-2-yl)-2-oxa-4,7,11,12-tetraazahexadecan-14-yl)carbamate] | 8.23 | –
COC(=O)N[C@H](C(=O)N[C@@H](Cc1ccc(C#Cc2ccc(N3CCN4CCOC[C@H]4C3)nc2)cc1)[C@@H](O)CN(Cc1c(F)cc(-c2ccn(CC(F)F)n2)cc1F)NC(=O)[C@@H](NC(=O)OC)C(C)(C)C(F)(F)F)C(C)(C)C(F)(F)F [Example 10, Methyl ((5S,8S,9S,14S)-11-(4-(1-(2,2-difluoroethyl)-1H-pyrazol-3-yl)-2,6-difluorobenzyl)-16,16,16-trifluoro-8-(4-((6-((R)-hexahydropyrazino[2,1-c][1,4]oxazin-8(1H)-yl)pyridin-3-yl)ethynyl)benzyl)-9-hydroxy-15,15-dimethyl-3,6,13-trioxo-5-(1,1,1-trifluoro-2-methylpropan-2-yl)-2-oxa-4,7,11,12-tetraazahexadecan-14-yl)carbamate] | 8.46 | –
COC(=O)N[C@H](C(=O)NN(Cc1c(F)cc(-c2ccn(C(F)F)n2)cc1F)C[C@H](O)[C@H](Cc1ccc(C#Cc2ccc(N3CC4CC(C3)N4C3COC3)nc2)cc1)NC(=O)[C@@H](NC(=O)OC)C(C)(C)C(F)(F)F)C(C)(C)C [Example 12, Methyl ((5S,8S,9S,14S)-11-(4-(1-(difluoromethyl)-1H-pyrazol-3-yl)-2,6-difluorobenzyl)-9-hydroxy-15,15-dimethyl-8-(4-((6-(6-(oxetan-3-yl)-3,6-diazabicyclo[3.1.1]heptan-3-yl)pyridin-3-yl)ethynyl)benzyl)-3,6,13-trioxo-5-(1,1,1-trifluoro-2-methylpropan-2-yl)-2-oxa-4,7,11,12-tetraazahexadecan-14-yl)carbamate] | 8.51 | –
